The target of one assay is T1, h P2X3 (Homo sapiens, UniProt P56373).
T1 sequence (P56373 1-397): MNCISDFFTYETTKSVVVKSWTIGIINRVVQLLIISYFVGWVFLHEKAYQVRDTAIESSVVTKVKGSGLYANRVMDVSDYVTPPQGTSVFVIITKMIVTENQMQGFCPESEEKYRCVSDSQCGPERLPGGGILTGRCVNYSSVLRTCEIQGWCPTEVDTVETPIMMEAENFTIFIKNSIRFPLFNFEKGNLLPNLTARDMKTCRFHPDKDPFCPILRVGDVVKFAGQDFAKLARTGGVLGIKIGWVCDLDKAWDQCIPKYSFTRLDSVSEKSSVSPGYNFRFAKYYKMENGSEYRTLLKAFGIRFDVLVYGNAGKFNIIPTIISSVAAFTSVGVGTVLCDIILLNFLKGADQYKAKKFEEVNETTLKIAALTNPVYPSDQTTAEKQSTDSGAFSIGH
Nature of the assay: In vitro electrophysiology assay for P2X3 (Sophion Qube automated patch-clamp, α,β-MeATP agonist). Type of assay: cell-based. The note with it: for h P2X3 (pIC50 range of activity): Table 3. As to the method:
Pharmacological Activity of the Compounds of the Invention. In Vitro Electrophysiology Assay for P2X3
Cells expressing P2X3 receptors were grown according to standard practice and maintained at 37° C. in a 5% humidified CO2 atmosphere. The cells were seeded into T175 flask 2 days prior to the day of the assay and dissociated from the flasks using TrypLE when grown to confluence of 80-90%. The dissociated cells were resuspended in serum free media at a cell density of 3×10^6 cells/ml and loaded onto the Sophion Qube automated patch-clamp system. The extracellular assay buffer contained 145 mM NaCl, 4 mM KCl, 2 mM CaCl2, 1 mM MgCl2, 10 mM HEPES, and 10 mM glucose at pH 7.4. The intracellular assay solution contained 140 mM CsF, 10 mM NaCl, 10 mM EGTA, 10 mM HEPES at pH 7.2. Agonist stock solutions were prepared in H2O and diluted in bath solution prior to use. All antagonists were prepared as 10 mM stock solutions in DMSO and diluted in bath solution prior to use. All experiments were performed under the whole-cell patch clamp configuration at room temperature with 384 individual cells being voltage clamped at −60 mV simultaneously on the Sophion Qube instrument. Two baseline responses were established with the application of α,β-MeATP (800 nM), with the subsequent agonist applications being washed out using extracellular assay buffer containing 0.5 U/ml apyrase. Following the second agonist application, antagonist was incubated in the absence of α,β-MeATP for 10 minutes. After antagonist preincubation, 800 nM α,β-MeATP and antagonist were co-administered to determine the inhibitory effect of the antagonist. One concentration of an antagonist was assessed against a single cell, with different concentrations of the antagonist applied to other cells on the 384 recording substrate. The control P2X3 current amplitude was taken from the peak current amplitude from the second agonist response prior to preincubation with antagonist. The peak P2X3 current amplitude in the presence of antagonist was used to calculate the inhibitory effect at each concentration of the antagonist according to the following equation: Percentage inhibition of P2X3=(P2X3 control peak amplitude-P2X3 antagonist peak amplitude)/P2X3 control peak amplitude)*100
Concentration-response curves were constructed from ten different concentrations with each concentration of antagonist tested on at least two individual cells. The concentration of the antagonist to inhibit P2X3 current by 50% (IC50) was determined by fitting the data with the following equation: Y=a+[(b−a)/(1+10^((log c−x)d)]
Where ‘a’ is minimum response, ‘b’ is maximum response, ‘c’ is IC50 and ‘d’ is Hill slope.
The results for individual compounds are provided below in Table 2 and are expressed as range of activity.
On the technique in general: Patch clamp records ionic current or voltage across a cell membrane.

In the next assay the target is T2, h P2X2/3 (Homo sapiens, UniProt P56373+Q9UBL9).
T2 construct: same protocol as the P2X3 assay
T2 sequence (P56373 1-397): T1 sequence (P56373 1-397)
T2 sequence (Q9UBL9 1-471): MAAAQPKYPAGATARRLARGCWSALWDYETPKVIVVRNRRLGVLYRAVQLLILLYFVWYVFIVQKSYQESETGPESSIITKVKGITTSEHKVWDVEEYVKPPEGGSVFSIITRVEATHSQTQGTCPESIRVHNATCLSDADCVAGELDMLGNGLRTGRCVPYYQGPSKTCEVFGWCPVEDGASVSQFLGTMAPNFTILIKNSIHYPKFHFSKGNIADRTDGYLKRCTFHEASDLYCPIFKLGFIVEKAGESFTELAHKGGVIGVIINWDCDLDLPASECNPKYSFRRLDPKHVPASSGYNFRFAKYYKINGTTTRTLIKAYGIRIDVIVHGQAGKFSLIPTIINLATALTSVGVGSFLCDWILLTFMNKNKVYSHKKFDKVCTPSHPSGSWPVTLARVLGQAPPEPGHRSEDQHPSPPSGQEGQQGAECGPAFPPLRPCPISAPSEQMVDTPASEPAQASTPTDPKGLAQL
Nature of the assay: In vitro electrophysiology assay for P2X2/3 (same protocol, 10 μM ATP agonist). Type of assay: cell-based. The settings on record: Table 3; 10 μM ATP as agonist, mean current amplitude seven seconds after agonist; read-out: h P2X2/3 (pIC50 range of activity) (converted). The protocol: Cells expressing P2X3 receptors were grown according to standard practice and maintained at 37° C. in a 5% humidified CO2 atmosphere. The cells were seeded into T175 flask 2 days prior to the day of the assay and dissociated from the flasks using TrypLE when grown to confluence of 80-90%. The dissociated cells were resuspended in serum free media at a cell density of 3×10^6 cells/ml and loaded onto the Sophion Qube automated patch-clamp system. The extracellular assay buffer contained 145 mM NaCl, 4 mM KCl, 2 mM CaCl2, 1 mM MgCl2, 10 mM HEPES, and 10 mM glucose at pH 7.4. The intracellular assay solution contained 140 mM CsF, 10 mM NaCl, 10 mM EGTA, 10 mM HEPES at pH 7.2. Agonist stock solutions were prepared in H2O and diluted in bath solution prior to use. All antagonists were prepared as 10 mM stock solutions in DMSO and diluted in bath solution prior to use. […] One concentration of an antagonist was assessed against a single cell, with different concentrations of the antagonist applied to other cells on the 384 recording substrate. […]
The same assay protocol was used for the P2X2/3 assay as the P2X3 assay with two modifications: 1) 10 μM ATP was used as the agonist; and 2) the mean current amplitude was measured seven seconds after the application of agonist.

The mark [1] stands for this setting: Table 2, whole-cell patch clamp, 800 nM α,β-MeATP, 10 min antagonist preincubation, read-out: h P2X3 (pIC50 range of activity) (converted).
[2] abbreviates: whole-cell patch clamp, 800 nM α,β-MeATP.

SMILES strings stand for the structures. Read-outs that look alike come from different tables or passages of the source.

As to `Cc1ccc(C(C)Nc2nnc(C3CCOCC3)c3ccc(-c4ccn(C)n4)cc23)nn1` (stereo not drawn) [Example 17, 7-(1-Methylpyrazol-3-yl)-N-[1-(6-methylpyridazin-3-yl)ethyl]-4-tetrahydropyran-4-yl-phthalazin-1-amine], at h P2X3 (setting [1]), the IC50 was 316 to 3160 nM.
On to `Cc1ccc(C(C)Nc2nnc(C3CCOCC3)c3ccc(-c4ccc(F)cn4)cc23)nn1` (single isomer, unassigned) [Example 11, 7-(5-Fluoropyridin-2-yl)-N-(1-(6-methylpyridazin-3-yl)ethyl)-4-(tetrahydro-2H-pyran-4-yl)phthalazin-1-amine], for which the IC50 on h P2X3 (setting [1]) was 316 to 3160 nM.
Same read-out and setting: with `Cc1ccc(CNc2nncc3ccc(-c4ncc(C)s4)cc23)nn1` [Example 13, N-[(6-Methylpyridazin-3-yl)methyl]-7-(5-methylthiazol-2-yl)phthalazin-1-amine] the figure was below 316 nM.
Take `C[C@@H](Nc1nnc(C2CC2)c2ccc(-c3ccc(F)cc3)cc12)c1cnc(C(F)(F)F)nc1` [Example 4, (R)-4-Cyclopropyl-7-(4-fluorophenyl)-N-(1-(2-(trifluoromethyl)pyrimidin-5-yl)ethyl)phthalazin-1-amine]: the IC50 at h P2X3 (setting [1]) was 316 to 3160 nM.
For `Cc1cnc(-c2ccc3c(C4CCOCC4)nnc(NCc4ccc(C)nn4)c3c2)nc1` [Example 1, N-((6-Methylpyridazin-3-yl)methyl)-7-(5-methylpyrimidin-2-yl)-4-(tetrahydro-2H-pyran-4-yl)phthalazin-1-amine], the IC50 at h P2X3 (setting [1]) was 316 to 3160 nM; at h P2X2/3, 3.16 to 31.6 µM. The “h P2X3 (pIC50 range of activity)” value at h P2X3 (setting [2]) is listed as “++ (++: 6.5<pIC50 h P2X3 or h P2X2/3>5.5)”.
With `Cc1ccc(C(C)Nc2nnc(C3CC3)c3ccc(-c4ccn(C)n4)cc23)nn1` (stereo not drawn) [Example 19, 4-Cyclopropyl-7-(1-methyl-1H-pyrazol-3-yl)-N-(1-(6-methylpyridazin-3-yl)ethyl)phthalazin-1-amine], at h P2X3 (setting [1]), the IC50 was 316 to 3160 nM.
`Cc1ccc([C@@H](C)Nc2nnc(C3CC3)c3ccc(-c4ccc(F)cc4)cc23)nn1` [Example 5, (R)-4-Cyclopropyl-7-(4-fluorophenyl)-N-(1-(6-methylpyridazin-3-yl)ethyl)phthalazin-1-amine]: the IC50 was below 316 nM on h P2X3 (setting [1]) and 0.316 to 3.16 µM on h P2X2/3. For the same molecule, the “h P2X3 (pIC50 range of activity)” value on h P2X3 (setting [2]) is recorded as “+++ (+++: pIC50 h P2X3 or h P2X2/3>6.5)”.
Turning to `C[C@@H](Nc1nnc(C2CCOCC2)c2ccc(-c3ccc(F)cc3)cc12)c1cnc(C(F)(F)F)nc1` [Example 6, (R)-7-(4-Fluorophenyl)-4-(tetrahydro-2H-pyran-4-yl)-N-(1-(2-(trifluoromethyl)pyrimidin-5-yl)ethyl)phthalazin-1-amine], at h P2X3 (setting [1]), the IC50 was 316 to 3160 nM.
For `Cc1ccc(CNc2nccc3ccc(-c4ccc(F)cc4)cc23)nn1` [Comparative Example A, reference compound], the IC50 at h P2X3 (in vitro assay on P2X3 as described above, read-out: activity on receptor P2X3 expressed as pIC50 (converted)) is above 3160 nM.
As to `Fc1ccc(-c2ccc3cnnc(NCC4CC4)c3c2)cc1` [Example 2, N-(Cyclopropylmethyl)-7-(4-fluorophenyl)phthalazin-1-amine], on h P2X3 (setting [1]), the IC50 is 316 to 3160 nM.
Same read-out and setting: the value for `Cc1ccc(CNc2nnc(C3CCOCC3)c3ccc(-c4ccc(F)cn4)cc23)nn1` [Example 9, 7-(5-Fluoropyridin-2-yl)-N-((6-methylpyridazin-3-yl)methyl)-4-(tetrahydro-2H-pyran-4-yl)phthalazin-1-amine] was 316 to 3160 nM; that for `Cc1ccc(CNc2nnc(CC3CCOCC3)c3ccc(-c4ccc(F)cn4)cc23)nn1` [Example 10, 7-(5-Fluoropyridin-2-yl)-N-((6-methylpyridazin-3-yl)methyl)-4-((tetrahydro-2H-pyran-4-yl)methyl)phthalazin-1-amine] was 316 to 3160 nM; that for `Cc1ccc(CNc2nncc3ccc(-c4ccc(F)cc4)cc23)nn1` [Example 3, 7-(4-Fluorophenyl)-N-((6-methylpyridazin-3-yl)methyl)phthalazin-1-amine] was below 316 nM.
With `Cc1ccc(CNc2nnc(CC3CCOCC3)c3ccc(-c4ncc(C)s4)cc23)nn1` [Example 15, N-((6-Methylpyridazin-3-yl)methyl)-7-(5-methylthiazol-2-yl)-4-((tetrahydro-2H-pyran-4-yl)methyl)phthalazin-1-amine], the IC50 on h P2X3 (setting [1]) was 316 to 3160 nM.
With `Cc1ccc([C@@H](C)Nc2nnc(C3CCOCC3)c3ccc(-c4ccc(F)cc4)cc23)nn1` [Example 7, (R)-7-(4-Fluorophenyl)-N-(1-(6-methylpyridazin-3-yl)ethyl)-4-(tetrahydro-2H-pyran-4-yl)phthalazin-1-amine], the IC50 on h P2X3 (setting [1]) was below 316 nM.
On the same count and under the same terms, with `Cc1ccc(C(C)Nc2nnc(C3CC3)c3ccc(-c4ccn(C)n4)cc23)nn1` (racemic) [Example 16, 4-Cyclopropyl-7-(1-methyl-1H-pyrazol-3-yl)-N-(1-(6-methylpyridazin-3-yl)ethyl)phthalazin-1-amine] the figure was 316 to 3160 nM; with `Cc1cnc(-c2ccc3c(CC4CCOCC4)nnc(NCc4nc(C(F)(F)F)no4)c3c2)s1` [Example 14, 7-(5-Methylthiazol-2-yl)-4-((tetrahydro-2H-pyran-4-yl)methyl)-N-((3-(trifluoromethyl)-1,2,4-oxadiazol-5-yl)methyl)phthalazin-1-amine], 316 to 3160 nM.

The values above are taken from patent publication US12534455B2, “Phthalazine derivatives as P2X3 inhibitors” (CHIESI FARMACEUTICI S.P.A., priority 2020, dated 2026).
